Like-named read-outs stand apart in the source and are kept apart here. *1 amine or outer side, *2 acyl side, *3 side chain or, on linkers, in order; H or OH if unused. Where a SMILES comes first, the peptide text is derived from it. [ ]: non-standard residue; d: D form. The star is where a group is joined. Benzothienyl2CO(5-CF2PO3H2) = O=C(c1cc2cc(C(F)(F)P(=O)(O)O)ccc2s1)*; βAla(N-(4-Br-phenyl)) = O=C(CCN(c1ccc(Br)cc1)[*:1])[*:2]; NHBn(4-(4-Me-thiazol-5-yl)) = Cc1ncsc1-c1ccc(CN*)cc1; NH(CH2)9CO = O=C(CCCCCCCCCN[*:1])[*:2]; Hyp = O=C(O)[C@@H]1C[C@@H](O)CN1; Tle = CC(C)(C)[C@H](N)C(=O)O
Target: T1, STAT6 (Homo sapiens, UniProt P42226)
T1 construct: endogenous in cells; host or cells: MOLM-16, KU-812, SKNO1, MB231, L1236
T1 sequence (P42226 1-847): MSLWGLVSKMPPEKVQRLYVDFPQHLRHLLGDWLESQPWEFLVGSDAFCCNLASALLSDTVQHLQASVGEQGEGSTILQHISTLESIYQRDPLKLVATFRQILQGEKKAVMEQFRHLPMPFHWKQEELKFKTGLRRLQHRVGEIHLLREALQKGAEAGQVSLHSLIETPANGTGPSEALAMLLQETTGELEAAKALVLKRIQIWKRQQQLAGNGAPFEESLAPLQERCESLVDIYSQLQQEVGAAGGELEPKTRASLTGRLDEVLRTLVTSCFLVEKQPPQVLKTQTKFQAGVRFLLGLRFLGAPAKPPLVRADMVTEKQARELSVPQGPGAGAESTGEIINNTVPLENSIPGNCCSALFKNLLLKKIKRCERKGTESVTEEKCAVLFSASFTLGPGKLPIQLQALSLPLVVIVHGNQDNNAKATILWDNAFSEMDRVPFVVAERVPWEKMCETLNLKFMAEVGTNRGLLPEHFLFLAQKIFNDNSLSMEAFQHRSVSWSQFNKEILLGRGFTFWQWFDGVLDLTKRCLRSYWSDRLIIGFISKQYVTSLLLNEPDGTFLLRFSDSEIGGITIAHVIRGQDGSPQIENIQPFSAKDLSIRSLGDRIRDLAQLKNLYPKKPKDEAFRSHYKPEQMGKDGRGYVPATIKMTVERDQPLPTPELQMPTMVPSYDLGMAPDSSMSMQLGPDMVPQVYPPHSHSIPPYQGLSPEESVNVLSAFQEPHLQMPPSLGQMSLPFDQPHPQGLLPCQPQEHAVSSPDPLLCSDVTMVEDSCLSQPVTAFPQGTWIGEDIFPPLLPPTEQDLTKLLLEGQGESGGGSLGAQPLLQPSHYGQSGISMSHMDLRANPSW
Experiment: Immunoblotting (Western blot) analysis of STAT6 degradation efficiency of degraders in treated cells
Assay type: cell-based
Method in brief: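 Treatment of cells with degraders at stated concentrations and exposure times comes first. Lysates are then equalised for total protein by BCA, and the proteins are separated, transferred and immunostained for STAT6 or STAT5 alongside GAPDH. Signal is quantified from infrared fluorescence.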

[1] = L1236 cells, read-out: DC50 S6 L1236
[2] = MOLM-16 cells, class symbols, read-out: DC50 S6 MOLM-16
[3] = MOLM-16 cells, numeric bound, read-out: DC50 S6 MOLM-16

| Structure (SMILES) | DC50 [2] [µM] | also measured |
| --- | --- | --- |
| Cc1ncsc1-c1ccc(CNC(=O)[C@@H]2C[C@@H](O)CN2C(=O)[C@@H](NC(=O)CCCCCCCCCNC(=O)CO[C@@H]2C[C@@H](C(=O)N(C)c3ccc(Br)cc3)N(C(=O)[C@@H](NC(=O)c3cc4cc(C(F)(F)P(=O)(O)O)ccc4s3)C(C)(C)C)C2)C(C)(C)C)cc1 [Compound 421, ((2-(((S)-1-((2S,4R)-2-((4-bromophenyl)(methyl)carbamoyl)-4-(2-((10-(((S)-1-((2S,4R)-4-hydroxy-2-((4-(4-methylthiazol-5-yl)benzyl)carbamoyl)pyrrolidin-1-yl)-3,3-dimethyl-1-oxobutan-2-yl)amino)-10-oxodecyl)amino)-2-oxoethoxy)pyrrolidin-1-yl)-3,3-dimethyl-1-oxobutan-2-yl)carbamoyl)benzo[b]thiophen-5-yl)difluoromethyl)phosphonic acid] |  | DC50 [1]: > 10 µM; DC50 (MB231 cells, read-out: DC50 S6 MB231): > 10 µM |
| CC(C)(C)[C@H](NC(=O)c1cc2cc(C(F)(F)P(=O)(O)O)ccc2s1)C(=O)N1C[C@@H](OCC(=O)NCCCC#Cc2cccc3c2C(=O)N(C2CCC(=O)NC2=O)C3=O)C[C@H]1C(=O)N1CCO[C@H](c2ccccc2)C1 (stereo partly drawn) [Compound 483, ((2-(((2S)-1-((2S,4S)-4-(2-((5-(2-(2,6-dioxopiperidin-3-yl)-1,3-dioxoisoindolin-4-yl)pent-4-yn-1-yl)amino)-2-oxoethoxy)-2-((R)-2-phenylmorpholine-4-carbonyl)pyrrolidin-1-yl)-3,3-dimethyl-1-oxobutan-2-yl)carbamoyl)benzo[b]thiophen-5-yl)difluoromethyl)phosphonic acid] | 1 to 10 |  |
| CC(C)(C)[C@H](NC(=O)c1cc2cc(C(F)(F)P(=O)(O)O)ccc2s1)C(=O)N1C[C@@H](OCC(=O)NCCCCCC#Cc2cccc3c2C(=O)N(C2CCC(=O)NC2=O)C3=O)C[C@H]1C(=O)N1CCO[C@H](c2ccccc2)C1 (stereo partly drawn) [Compound 487, ((2-(((2S)-1-((2S,4S)-4-(2-((7-(2-(2,6-dioxopiperidin-3-yl)-1,3-dioxoisoindolin-4-yl)hept-6-yn-1-yl)amino)-2-oxoethoxy)-2-((R)-2-phenylmorpholine-4-carbonyl)pyrrolidin-1-yl)-3,3-dimethyl-1-oxobutan-2-yl)carbamoyl)benzo[b]thiophen-5-yl)difluoromethyl)phosphonic acid] | > 10 |  |
| CC(C)(C)[C@H](NC(=O)c1cc2cc(C(F)(F)P(=O)(O)O)ccc2s1)C(=O)N1C[C@@H](OCCCCCCCC#Cc2cccc3c2CN(C2CCC(=O)NC2=O)C3=O)C[C@H]1C(=O)N1CCO[C@H](c2ccccc2)C1 (stereo partly drawn) [Compound 595, ((2-(((2S)-1-((2S,4S)-4-((9-(2-(2,6-dioxopiperidin-3-yl)-1-oxoisoindolin-4-yl)non-8-yn-1-yl)oxy)-2-((R)-2-phenylmorpholine-4-carbonyl)pyrrolidin-1-yl)-3,3-dimethyl-1-oxobutan-2-yl)carbamoyl)benzo[b]thiophen-5-yl)difluoromethyl)phosphonic acid] | < 0.1 |  |
| CC(C)(C)[C@H](NC(=O)c1cc2cc(C(F)(F)P(=O)(O)O)ccc2s1)C(=O)N1CCN(C(=O)CC(=O)NCCCCC#Cc2cccc3c2C(=O)N(C2CCC(=O)NC2=O)C3=O)C[C@H]1C(=O)N1CCO[C@H](c2ccccc2)C1 (stereo partly drawn) [Compound 513, ((2-(((2S)-1-((2S)-4-(3-((6-(2-(2,6-dioxopiperidin-3-yl)-1,3-dioxoisoindolin-4-yl)hex-5-yn-1-yl)amino)-3-oxopropanoyl)-2-((R)-2-phenylmorpholine-4-carbonyl)piperazin-1-yl)-3,3-dimethyl-1-oxobutan-2-yl)carbamoyl)benzo[b]thiophen-5-yl)difluoromethyl)phosphonic acid] | > 10 |  |
| Cc1ncsc1-c1ccc([C@H](C)NC(=O)[C@@H]2C[C@@H](O)CN2C(=O)[C@@H](NC(=O)CCCCCNC(=O)CC(=O)N2CCN(C(=O)[C@@H](NC(=O)c3cc4cc(C(F)(F)P(=O)(O)O)ccc4s3)C(C)(C)C)[C@H](C(=O)N3CCO[C@H](c4ccccc4)C3)C2)C(C)(C)C)cc1 [Compound 447, (difluoro(2-(((S)-1-((S)-4-(3-((6-(((S)-1-((2S,4R)-4-hydroxy-2-(((S)-1-(4-(4-methylthiazol-5-yl)phenyl)ethyl)carbamoyl)pyrrolidin-1-yl)-3,3-dimethyl-1-oxobutan-2-yl)amino)-6-oxohexyl)amino)-3-oxopropanoyl)-2-((R)-2-phenylmorpholine-4-carbonyl)piperazin-1-yl)-3,3-dimethyl-1-oxobutan-2-yl)carbamoyl)benzo[b]thiophen-5-yl)methyl)phosphonic acid] | > 10 | DC50 [1]: > 10 µM |
| Cc1ncsc1-c1ccc([C@H](CC(=O)NCCOCCOCCOCCC(=O)N[C@H]2C[C@@H](C(=O)N3CCO[C@H](c4ccccc4)C3)N(C(=O)[C@@H](NC(=O)c3cc4cc(C(F)(F)P(=O)(O)O)ccc4s3)C(C)(C)C)C2)NC(=O)[C@@H]2C[C@@H](O)CN2C(=O)[C@@H](NC(=O)C2(F)CC2)C(C)(C)C)cc1 [Compound 573, (difluoro(2-(((S)-1-((2S,4S)-4-((S)-1-((2S,4R)-1-((S)-2-(1-fluorocyclopropane-1-carboxamido)-3,3-dimethylbutanoyl)-4-hydroxypyrrolidin-2-yl)-3-(4-(4-methylthiazol-5-yl)phenyl)-1,5-dioxo-9,12,15-trioxa-2,6-diazaoctadecan-18-amido)-2-((R)-2-phenylmorpholine-4-carbonyl)pyrrolidin-1-yl)-3,3-dimethyl-1-oxobutan-2-yl)carbamoyl)benzo[b]thiophen-5-yl)methyl)phosphonic acid] | > 10 |  |
| CC(C)(C)[C@H](NC(=O)c1cc2cc(C(F)(F)P(=O)(O)O)ccc2s1)C(=O)N1C[C@@H](OCCCCCCC#Cc2cccc3c2CN(C2CCC(=O)NC2=O)C3=O)C[C@H]1C(=O)N1CCOC(c2cccc3ccccc23)C1 (stereo partly drawn) [Compound 612] |  | DC50 [3]: > 0.3 µM |
| Cc1ncsc1-c1ccc([C@H](C)NC(=O)[C@@H]2C[C@@H](O)CN2C(=O)[C@@H](NC(=O)CCNC(=O)CO[C@H]2C[C@@H](C(=O)N3CCC[C@H](c4ccccc4)C3)N(C(=O)[C@@H](NC(=O)c3cc4cc(C(F)(F)P(=O)(O)O)ccc4s3)C(C)(C)C)C2)C(C)(C)C)cc1 [Compound 435, (difluoro(2-(((S)-1-((2S,4S)-4-(2-((3-(((S)-1-((2S,4R)-4-hydroxy-2-(((S)-1-(4-(4-methylthiazol-5-yl)phenyl)ethyl)carbamoyl)pyrrolidin-1-yl)-3,3-dimethyl-1-oxobutan-2-yl)amino)-3-oxopropyl)amino)-2-oxoethoxy)-2-((R)-3-phenylpiperidine-1-carbonyl)pyrrolidin-1-yl)-3,3-dimethyl-1-oxobutan-2-yl)carbamoyl)benzo[b]thiophen-5-yl)methyl)phosphonic acid] | > 10 | DC50 [1]: > 10 µM |
| CC(C)(C)[C@H](NC(=O)c1cc2cc(C(F)(F)P(=O)(O)O)ccc2s1)C(=O)N1CCN(C(=O)CC(=O)NCCCCCCCCCC#Cc2cccc3c2C(=O)N(C2CCC(=O)NC2=O)C3=O)C[C@H]1C(=O)N1CCO[C@H](c2ccccc2)C1 (stereo partly drawn) [Compound 519, ((2-(((2S)-1-((2S)-4-(3-((11-(2-(2,6-dioxopiperidin-3-yl)-1,3-dioxoisoindolin-4-yl)undec-10-yn-1-yl)amino)-3-oxopropanoyl)-2-((R)-2-phenylmorpholine-4-carbonyl)piperazin-1-yl)-3,3-dimethyl-1-oxobutan-2-yl)carbamoyl)benzo[b]thiophen-5-yl)difluoromethyl)phosphonic acid] | > 10 |  |
| CC(C)(C)[C@H](NC(=O)c1cc2cc(C(F)(F)P(=O)(O)O)ccc2s1)C(=O)N1C[C@@H](OCCN2CCC(C#Cc3cccc4c3CN(C3CCC(=O)NC3=O)C4=O)CC2)C[C@H]1C(=O)N1CCO[C@H](c2ccccc2)C1 (stereo partly drawn) [Compound 604, ((2-(((2S)-1-((2S,4S)-4-(2-(4-((2-(2,6-dioxopiperidin-3-yl)-1-oxoisoindolin-4-yl)ethynyl)piperidin-1-yl)ethoxy)-2-((R)-2-phenylmorpholine-4-carbonyl)pyrrolidin-1-yl)-3,3-dimethyl-1-oxobutan-2-yl)carbamoyl)benzo[b]thiophen-5-yl)difluoromethyl)phosphonic acid] |  | DC50 [3]: > 0.3 µM |
| Cc1ncsc1-c1ccc(CNC(=O)[C@@H]2C[C@@H](O)CN2C(=O)[C@@H](NC(=O)CCCCCCCCCNC(=O)CCN(C(=O)[C@@H]2CCCN2C(=O)[C@@H](NC(=O)c2cc3cc(C(F)(F)P(=O)(O)O)ccc3s2)C(C)(C)C)c2ccc(Br)cc2)C(C)(C)C)cc1 [Compound 396] ({Benzothienyl2CO(5-CF2PO3H2)}-[Tle]P[βAla(N-(4-Br-phenyl))][NH(CH2)9CO][Tle][Hyp]-{NHBn(4-(4-Me-thiazol-5-yl))}) |  | DC50 (read-out: DC50 S6 MB231, MB231 cells): > 10 µM |

Reference: US20230295197A1, “STAT5 and STAT6 Degraders and Uses Thereof” (REGENTS OF THE UNIVERSITY OF MICHICAN, priority 2022, published 2023)
